Data on three molecules can be found in patent US20140363489A1, “TREATMENT OF EYE DISEASE” (Panacea Pharmaceuticals, priority 2013, published 2014).

Entries after “also recorded” stand apart in the source; their conditions may differ. Like-named read-outs stand apart in the source and are kept apart here.

Data set [1] has as its system retinal degeneration. The note with it: RSC rats; cited from earlier work.
The subject of data set [2] is retinal degeneration. The note with it: RCS, P23H, S334ter, photo stress rats, rd mice, CAR model rats (Ohguro, 2008); cited from earlier work.
For data set [3], the system named is photoreceptor neurons of rd1 mouse retina. The experiment in a line: ex vivo rd1 mouse retina culture, photoreceptor rows and nucleus numbers. The data set is classed as cell-based. To be noted: 10 μM. As to the method: The effect of PAN-811 was examined in an ex vivo model, in which retinas were isolated from rd1 mouse at PN7 and treated in culture with 0, 2 and 10 μM PAN-811 for 21 days (equal to PN28).
The one model of RP study is rd1 mouse in which, like in RP patient, the gene for β-phospodiesterase is spontaneously mutated in rod photoreceptor neurons results in the rod cell loss. The apoptosis starts at postnatal day (PN) 9 to 10, peaks at PN13 and is completed at PN21.
To test the effect PAN-811, retinas from rd1 (C3H strain) mice at PN7 were cultured in the presence of 0 (n=6), 2 (n=6) and 10 (n=7) μM PAN-811. After 21 days in vitro (equal to PN28), the hematoxylin/eosin stained retinal section was analyzed at five positions; the very center of the retina plus at two positions on each side of this, approximately 200 μm apart, and referred to as mid-periphery and periphery, respectively. The retina from the rd1 mouse commonly carried only a thin layer of photoreceptor neurons (FIG. 1A—photo on left). […] Quantitatively, a control group has two layers of photoreceptor neurons at center, mid-periphery or pheriphery (FIG. 1B). PAN-811 at a concentration of 10 μM, but not 2 μM, increased the row numbers from 2 to 3 (P<0.05) at all measured areas.
Nucleus numbers for photoreceptor neurons that locate in center (n=7), mid-periphery (n=6) and periphery (n=6) were counted on photos (within 35 mm length of rode photoreceptor layer after magnification) by ImageJ software (NIH) and the data were expressed as percentage of untreated control. […]
Twenty retinas from 10 rd1 mice (C3H strain) were dissected out at PN7 and mounted flat on HA mixed cellulose, 0.45 μm membranes fitted to culture dish inserts (Millipore Corp). […] The sections were analyzed and photographed under a microscope, blindly with respect to origin The rows of photoreceptors in the outer nuclear layer of the retina were quantitatively evaluated in a total of at least 30 sections for each preparation (4 slides from each preparation and 8 sections from each slide). […]

The subject of another data set is ischemic stroke. To be noted: ischemic stroke model (Jiang et al., 2006); cited from earlier work.
The conditions of data set [4]: cited from earlier work.

Consider `COC(=O)C1=C(C#N)NC(C)=C(C(=O)OC(C)C)C1c1cccc([N+](=O)[O-])c1` (stereo not shown) [Nilvadipine], for which the “effect against retinal degeneration” value in the data set with retinal degeneration [1] is given as “beneficial effect against retinal degeneration”; in the data set on retinal degeneration [2] it was “beneficial effects against retinal degeneration in all models tested”.
Regarding `NC(=S)N/N=C/c1ncccc1N` [PAN-811, 3-aminopyridine-2-carboxaldehyde thiosemicarbazone], in data set [3] (21 days in vitro, center, mid-periphery and periphery, P<0.01), the “increase of nucleus numbers of photoreceptor neurons vs untreated control” value is “about 50%”. Further, the “row numbers of photoreceptor neurons” value in data set [3] (21 days in vitro, center, mid-periphery, periphery, control 2 rows, P<0.05) is 3. In data set [3] (retinas from rd1 mouse at PN7, 21 days in culture), the “loss of photoreceptor neurons / thickness of photoreceptor layer” value is recorded as “prevents loss of photoreceptor neurons; also recorded: prevented the loss of photoreceptor neurons; also recorded: thicker”. For the same molecule, the neuroprotective activity result in the data set with ischemic stroke is reported as “potent neuroprotective activity”.

B1: CNTF: Ciliary neurotrophic factor, neurotrophic factor delivered into eye (protein, UniProt P26441 1-200, looked up)
Ciliary neurotrophic factor: MAFTEHSPLTPHRRDLCSRSIWLARKIRSDLTALTESYVKHQGLNKNINLDSADGMPVASTDQWSELTEAERLQENLQAYRTFHVLLARLLEDQQVHFTPTEGDFHQAIHTLLLQVAAFAYQIEELMILLEYKIPRNEADGMPINVGDGGLFEKKLWGLKVLQELSQWTVRSIHDLRFISSHQTGIPARGSHYIANNKKM
Consider B1, for which the half-life in vivo in data set [4] is 2 to 6.67 h.
